# According to PubChem BioAssay (NCI):
#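 How tested: cells in 96-well plates exposed to compound for 48 hours at five concentrations. The concentration for 50% growth inhibition is given as GI50. At the TGI there is no net growth.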
# Legend:
# Experiment in all cases: NCI-60 cell line screen, 48 h
# [1] = test system: MDA-MB-231 breast
# [2] = test system: U251 CNS
# [3] = test system: OVCAR-4 ovarian
# [4] = test system: HCT-116 colon
# [5] = test system: NCI-H226 lung
# [6] = test system: SF-539 CNS
# [7] = test system: MALME-3M melanoma
# [8] = test system: OVCAR-8 ovarian
# [9] = test system: UACC-257 melanoma
# [10] = test system: SK-MEL-2 melanoma
# [11] = test system: HCT-15 colon
# [12] = test system: MOLT-4 leukemia
# [13] = test system: MDA-MB-435
# [14] = test system: SF-295 CNS
# [15] = test system: SNB-75 CNS
# [16] = test system: HCC-2998 colon
# [17] = test system: PC-3 prostate
# [18] = test system: BT-549 breast
# [19] = test system: UACC-62 melanoma
# [20] = test system: T-47D breast
# [21] = test system: TK-10 renal
# [22] = test system: M14 melanoma
# [23] = test system: K-562 leukemia
# [24] = test system: SNB-19 CNS
# [25] = test system: HT29 colon
# [26] = test system: HOP-92 NSCLC
# [27] = test system: SF-268 CNS
# [28] = test system: SW-620 colon
# [29] = test system: CAKI-1 renal
# [30] = test system: LOX IMVI melanoma
# [31] = test system: NCI-H460 lung
# [32] = test system: 786-0 renal
# [33] = test system: MCF7 breast
# [34] = test system: KM12 colon
# [35] = test system: A549 NSCLC
# [36] = test system: COLO 205 colon
# [37] = test system: DU-145 prostate
# [38] = test system: SN12C renal
# [39] = test system: OVCAR-5 ovarian
# [40] = test system: ACHN renal
# [41] = test system: IGROV1 ovarian
# [42] = test system: SK-MEL-5 melanoma
# [43] = test system: HS 578T breast
# [44] = test system: HL-60(TB) leukemia
# [45] = test system: UO-31 renal
# [46] = test system: NCI-H522 lung
# [47] = test system: SK-OV-3 ovarian
# [48] = test system: HOP-62 NSCLC
# [49] = test system: EKVX NSCLC
# [50] = test system: NCI/ADR-RES ovarian
# [51] = test system: SK-MEL-28 melanoma
# [52] = test system: A498 renal
# [53] = test system: RPMI-8226 leukemia
# [54] = test system: RXF 393 renal
# [55] = test system: OVCAR-3 ovarian
# [56] = test system: CCRF-CEM leukemia
# [57] = test system: SR leukemia
structure (smiles),measurement,setting,value
Cc1ccc(C2CC(c3ccc(Nc4nc(NCCO)nc(Nc5ccc(Cl)cc5)n4)cc3)=Nc3c(N)nc(N)nc3N2)cc1 (stereo not drawn),GI50,[1],1.67 µM
same,TGI,[1],3.26 µM
same,GI50,[2],1.6 µM
same,TGI,[2],3.01 µM
same,GI50,[3],1.85 µM
same,TGI,[3],3.63 µM
same,GI50,[4],1.62 µM
same,TGI,[4],2.97 µM
same,GI50,[5],16.7 µM
same,TGI,[5],38.4 µM
same,GI50,[6],1.57 µM
same,TGI,[6],2.97 µM
same,GI50,[7],1.7 µM
same,TGI,[7],3.37 µM
same,GI50,[8],1.8 µM
same,TGI,[8],3.69 µM
same,GI50,[9],1.84 µM
same,TGI,[9],3.46 µM
same,GI50,[10],1.81 µM
same,TGI,[10],3.4 µM
same,GI50,[11],1.48 µM
same,TGI,[11],2.95 µM
same,GI50,[12],1.38 µM
same,TGI,[12],3.89 µM
same,GI50,[13],1.73 µM
same,TGI,[13],3.13 µM
same,GI50,[14],1.63 µM
same,TGI,[14],3.03 µM
same,GI50,[15],1.62 µM
same,TGI,[15],3.31 µM
same,GI50,[16],1.55 µM
same,TGI,[16],2.93 µM
same,GI50,[17],1.74 µM
same,TGI,[17],3.6 µM
same,GI50,[18],1.73 µM
same,TGI,[18],3.14 µM
same,GI50,[19],1.82 µM
same,TGI,[19],3.39 µM
same,GI50,[20],1.67 µM
same,TGI,[20],3.65 µM
same,GI50,[21],1.9 µM
same,TGI,[21],3.38 µM
same,GI50,[22],1.84 µM
same,TGI,[22],3.32 µM
same,GI50,[23],1.34 µM
same,TGI,[23],3.92 µM
same,GI50,[24],1.57 µM
same,TGI,[24],3 µM
same,GI50,[25],1.78 µM
same,TGI,[25],3.56 µM
same,GI50,[26],1.3 µM
same,TGI,[26],2.86 µM
same,GI50,[27],1.81 µM
same,TGI,[27],3.64 µM
same,GI50,[28],1.79 µM
same,TGI,[28],3.31 µM
same,GI50,[29],1.64 µM
same,TGI,[29],3.06 µM
same,GI50,[30],1.65 µM
same,TGI,[30],3.07 µM
same,GI50,[31],1.8 µM
same,TGI,[31],3.39 µM
same,GI50,[32],1.64 µM
same,TGI,[32],3.06 µM
same,GI50,[33],1.46 µM
same,TGI,[33],3.01 µM
same,GI50,[34],1.97 µM
same,TGI,[34],3.86 µM
same,GI50,[35],1.74 µM
same,TGI,[35],3.44 µM
same,GI50,[36],1.67 µM
same,TGI,[36],3.19 µM
same,GI50,[37],1.76 µM
same,TGI,[37],3.19 µM
same,GI50,[38],1.79 µM
same,TGI,[38],3.38 µM
same,GI50,[39],1.62 µM
same,TGI,[39],3.01 µM
same,GI50,[40],1.72 µM
same,TGI,[40],3.09 µM
same,GI50,[41],1.65 µM
same,TGI,[41],3.14 µM
same,GI50,[42],1.56 µM
same,TGI,[42],2.91 µM
same,GI50,[43],1.79 µM
same,TGI,[43],4.36 µM
same,GI50,[44],1.71 µM
same,TGI,[44],4.71 µM
same,GI50,[45],1.64 µM
same,TGI,[45],3 µM
same,GI50,[46],1.72 µM
same,TGI,[46],3.47 µM
same,GI50,[47],2.69 µM
same,TGI,[47],7.33 µM
same,GI50,[48],1.68 µM
same,TGI,[48],3.2 µM
same,GI50,[49],1.55 µM
same,TGI,[49],2.97 µM
same,GI50,[50],1.73 µM
same,TGI,[50],3.48 µM
same,GI50,[51],1.77 µM
same,TGI,[51],3.16 µM
same,GI50,[52],3.85 µM
same,TGI,[52],17.7 µM
CN(C)CCCOc1c2ccccc2nc2c1oc1ccc(Cl)cc12,GI50,[1],2.64 µM
same,TGI,[1],10.5 µM
same,GI50,[2],3.36 µM
same,TGI,[2],13.7 µM
same,GI50,[3],2.42 µM
same,TGI,[3],7.45 µM
same,GI50,[4],1.87 µM
same,TGI,[4],13 µM
same,GI50,[5],3.02 µM
same,TGI,[5],9.95 µM
same,GI50,[6],3.24 µM
same,TGI,[6],13 µM
same,GI50,[7],2.77 µM
same,TGI,[7],9.64 µM
same,GI50,[8],3.28 µM
same,TGI,[8],14.2 µM
same,GI50,[9],3.44 µM
same,TGI,[9],13.3 µM
same,GI50,[10],6.35 µM
same,TGI,[10],18.9 µM
same,GI50,[11],3.07 µM
same,TGI,[11],12.5 µM
same,GI50,[12],3.19 µM
same,TGI,[12],14 µM
same,GI50,[13],3.44 µM
same,TGI,[13],12.7 µM
same,GI50,[14],3.82 µM
same,TGI,[14],15 µM
same,GI50,[15],2.6 µM
same,TGI,[15],11.8 µM
same,GI50,[16],3.12 µM
same,TGI,[16],13.9 µM
same,GI50,[17],3.16 µM
same,TGI,[17],12.3 µM
same,GI50,[53],2.7 µM
same,TGI,[53],7.56 µM
same,GI50,[18],5.17 µM
same,TGI,[18],18.5 µM
same,GI50,[19],5.11 µM
same,TGI,[19],19.1 µM
same,GI50,[20],4.92 µM
same,TGI,[20],20.7 µM
same,GI50,[21],5.16 µM
same,TGI,[21],17.1 µM
same,GI50,[22],3.04 µM
same,TGI,[22],11 µM
same,GI50,[23],2.79 µM
same,TGI,[23],> 100 µM
same,GI50,[24],3.93 µM
same,TGI,[24],16.3 µM
same,GI50,[25],2.56 µM
same,TGI,[25],11.7 µM
same,GI50,[26],1.75 µM
same,TGI,[26],8.01 µM
same,GI50,[27],3.8 µM
same,TGI,[27],17 µM
same,GI50,[28],1.92 µM
same,TGI,[28],10.1 µM
same,GI50,[54],2.58 µM
same,TGI,[54],8.7 µM
same,GI50,[29],2.63 µM
same,TGI,[29],11.3 µM
same,GI50,[30],1.48 µM
same,TGI,[30],3.08 µM
same,GI50,[31],3.06 µM
same,TGI,[31],11.6 µM
same,GI50,[32],3.32 µM
same,TGI,[32],15.3 µM
same,GI50,[55],5.2 µM
same,TGI,[55],17.5 µM
same,GI50,[33],2.88 µM
same,TGI,[33],10.3 µM
same,GI50,[34],4.18 µM
same,TGI,[34],18.5 µM
same,GI50,[35],2.8 µM
same,TGI,[35],10.6 µM
same,GI50,[36],2.49 µM
same,TGI,[36],9.76 µM
same,GI50,[37],4.14 µM
same,TGI,[37],14.5 µM
same,GI50,[38],3.01 µM
same,TGI,[38],14.1 µM
same,GI50,[39],4.04 µM
same,TGI,[39],15.9 µM
same,GI50,[40],2.2 µM
same,TGI,[40],11.5 µM
same,GI50,[41],3.61 µM
same,TGI,[41],13 µM
same,GI50,[42],9.28 µM
same,TGI,[42],21.3 µM
same,GI50,[43],3.76 µM
same,TGI,[43],19.7 µM
same,GI50,[44],3.13 µM
same,TGI,[44],14.1 µM
same,GI50,[45],2.32 µM
same,TGI,[45],12.1 µM
same,GI50,[46],2.76 µM
same,TGI,[46],11.1 µM
same,GI50,[47],4.6 µM
same,TGI,[47],16.7 µM
same,GI50,[56],4.12 µM
same,TGI,[56],46.1 µM
same,GI50,[48],3.66 µM
same,TGI,[48],15.5 µM
same,GI50,[49],3.68 µM
same,TGI,[49],14.7 µM
same,GI50,[50],1.94 µM
same,TGI,[50],10.2 µM
same,GI50,[51],4.56 µM
same,TGI,[51],16.5 µM
same,GI50,[52],10.4 µM
same,TGI,[52],23.6 µM
same,GI50,[57],3.02 µM
same,TGI,[57],12.2 µM
